Tests used:
Experiment in all cases: relative viability (nuclei count vs DMSO), 5 days (fraction); higher = more cells survive
Dovitinib + Lapatinib = compound: CN1CCN(c2ccc3nc(-c4c(N)c5c(F)cccc5[nH]c4=O)[nH]c3c2)CC1 [Dovitinib] + CS(=O)(=O)CCNCc1ccc(-c2ccc3ncnc(Nc4ccc(OCc5cccc(F)c5)c(Cl)c4)c3c2)o1 [Lapatinib] (partner 2 µM)
Outline: (§1)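 A single step with final 0.05% Triton X-100, 1% formaldehyde and 1 ug/ml Hoechst fixed the cells and stained nuclei 5 days after treatment. Lung cancer cell lines in 1536-well plates had been treated by pin tool the day after seeding with one drug alone or a fixed anchor-drug dose plus five library-drug doses (not always all listed) in √10 steps, and nuclei were counted on 4× images. Relative viability is the ratio of nuclei in treated wells to nuclei in vehicle wells, taken as the median of duplicate plates.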

Dovitinib + Crizotinib = compound: CN1CCN(c2ccc3nc(-c4c(N)c5c(F)cccc5[nH]c4=O)[nH]c3c2)CC1 [Dovitinib] + C[C@@H](Oc1cc(-c2cnn(C3CCNCC3)c2)cnc1N)c1c(Cl)ccc(F)c1Cl [Crizotinib] (partner 1 µM)
Outline: as §1

Dovitinib + Tozasertib = compound: CN1CCN(c2ccc3nc(-c4c(N)c5c(F)cccc5[nH]c4=O)[nH]c3c2)CC1 [Dovitinib] + Cc1cc(Nc2cc(N3CCN(C)CC3)nc(Sc3ccc(NC(=O)C4CC4)cc3)n2)n[nH]1 [Tozasertib] (partner 0.1 µM)
Outline: as §1

Dovitinib + Decitabine = compound: CN1CCN(c2ccc3nc(-c4c(N)c5c(F)cccc5[nH]c4=O)[nH]c3c2)CC1 [Dovitinib] + Nc1ncn([C@H]2C[C@H](O)[C@@H](CO)O2)c(=O)n1 [Decitabine] (partner 2 µM)
Outline: as §1

| Cell Line | relative viability (Dovitinib + Lapatinib; first compound 0.02 µM) | relative viability (Dovitinib + Lapatinib; first compound 0.06325 µM) | relative viability (Dovitinib + Lapatinib; first compound 0.2 µM) | relative viability (Dovitinib + Lapatinib; first compound 0.6325 µM) | relative viability (Dovitinib + Lapatinib; first compound 2 µM) | relative viability (Dovitinib + Crizotinib; first compound 0.02 µM) | relative viability (Dovitinib + Crizotinib; first compound 0.06325 µM) | relative viability (Dovitinib + Crizotinib; first compound 0.2 µM) | relative viability (Dovitinib + Crizotinib; first compound 0.6325 µM) | relative viability (Dovitinib + Crizotinib; first compound 2 µM) | relative viability (Dovitinib + Tozasertib; first compound 0.02 µM) | relative viability (Dovitinib + Tozasertib; first compound 0.06325 µM) | relative viability (Dovitinib + Tozasertib; first compound 0.2 µM) | relative viability (Dovitinib + Tozasertib; first compound 0.6325 µM) | relative viability (Dovitinib + Tozasertib; first compound 2 µM) | relative viability (Dovitinib + Decitabine; first compound 0.02 µM) | relative viability (Dovitinib + Decitabine; first compound 0.06325 µM) | relative viability (Dovitinib + Decitabine; first compound 0.2 µM) | relative viability (Dovitinib + Decitabine; first compound 0.6325 µM) | relative viability (Dovitinib + Decitabine; first compound 2 µM) |
| --- | --- | --- | --- | --- | --- | --- | --- | --- | --- | --- | --- | --- | --- | --- | --- | --- | --- | --- | --- | --- |
| HCC-366 | 0.892 | 1.08 | 1.03 | 1.07 | 1.01 | 0.571 | 0.6 | 0.486 | 0.61 | 0.562 | 0.0642 | 0.143 | 0.14 | 0.127 | 0.111 | 0.341 | 0.363 | 0.362 | 0.317 | 0.378 |
| HCC-827 | 0.191 | 0.171 | 0.216 | 0.202 | 0.191 | 0.91 | 0.867 | 0.932 | 0.93 | 0.94 | 0.44 | 0.455 | 0.441 | 0.43 | 0.469 | 0.308 | 0.353 | 0.324 | 0.336 | 0.338 |
| HOP-62 | 0.876 | 0.999 | 1 | 1.24 | 1.1 | 0.861 | 0.923 | 1.15 | 0.943 | 1.01 | 0.316 | 0.401 | 0.346 | 0.384 | 0.424 | 0.208 | 0.255 | 0.191 | 0.269 | 0.214 |
| IA-LM | 1.07 | 0.693 | 0.709 | 0.648 | 0.821 | 0.678 | 0.838 | 0.73 | 0.722 | 0.682 | – | – | – | – | – | – | – | – | – | – |
| LC-2-ad | 0.772 | 0.962 | 1.04 | 1.02 | 0.686 | 0.486 | 0.436 | 0.5 | 0.453 | 0.465 | 0.563 | 0.487 | 0.465 | 0.369 | 0.498 | 0.777 | 0.815 | 0.711 | 0.795 | 0.774 |
| LCLC-97TM1 | 0.835 | 0.752 | 1.02 | 0.602 | 1.03 | 0.332 | 0.305 | 0.372 | 0.275 | 0.253 | 0.243 | 0.207 | 0.231 | 0.195 | 0.235 | 0.188 | 0.118 | 0.203 | 0.217 | 0.206 |
| LCLC-103H | – | – | – | – | – | 0.992 | 0.978 | 0.993 | 0.946 | 0.916 | 0.539 | 0.414 | 0.477 | 0.415 | 0.53 | 0.722 | 0.775 | 0.75 | 0.758 | 0.739 |
| LK-2 | 0.878 | 0.914 | 0.858 | 0.83 | 0.709 | 0.216 | 0.215 | 0.275 | 0.223 | 0.281 | 0.175 | 0.182 | 0.182 | 0.181 | 0.149 | 0.267 | 0.333 | 0.295 | 0.384 | 0.268 |
| LOU-NH91 | 0.794 | 0.675 | 0.717 | 0.858 | 0.726 | 0.767 | 0.75 | 0.729 | 0.74 | 0.798 | 0.708 | 0.659 | 0.611 | 0.678 | 0.776 | 0.817 | 0.812 | 0.817 | 0.816 | 0.813 |
| LU99A | 0.943 | 0.985 | 1.08 | 0.937 | 0.922 | 0.548 | 0.597 | 0.601 | 0.561 | 0.547 | 0.222 | 0.226 | 0.272 | 0.239 | 0.251 | 0.759 | 0.762 | 0.965 | 0.981 | 0.904 |
| NCI-H441 | – | – | – | – | – | 0.597 | 0.661 | 0.715 | 0.862 | 0.798 | 0.668 | 0.599 | 0.559 | 0.626 | 0.575 | 0.254 | 0.202 | 0.271 | 0.223 | 0.3 |
| NCI-H1299 | 0.948 | 1 | 0.966 | 0.892 | 0.966 | 0.941 | 0.968 | 0.915 | 0.942 | 1.01 | – | – | – | – | – | – | – | – | – | – |
| NCI-H1395 | 1.01 | 0.879 | 1.08 | 1.04 | 1.12 | – | – | – | – | – | 0.721 | 0.75 | 0.81 | 0.765 | 0.815 | 0.719 | 0.668 | 0.747 | 0.713 | 0.696 |
| NCI-H1563 | 0.92 | 0.994 | 0.944 | 0.982 | 1.18 | 0.829 | 0.855 | 0.839 | 0.838 | 0.814 | – | – | – | – | – | – | – | – | – | – |
| NCI-H1648 | – | – | – | – | – | – | – | – | – | – | 0.491 | 0.532 | 0.562 | 0.402 | 0.564 | 0.502 | 0.445 | 0.444 | 0.455 | 0.458 |
| NCI-H1703 | 1.17 | 0.955 | 0.788 | 0.784 | 0.42 | 0.651 | 0.836 | 0.779 | 0.547 | 0.31 | – | – | – | – | – | – | – | – | – | – |
| NCI-H1792 | 0.852 | 0.892 | 0.952 | 1.06 | 0.855 | 0.998 | 0.977 | 0.997 | 1.04 | 0.971 | – | – | – | – | – | 0.539 | 0.6 | 0.468 | 0.502 | 0.505 |
| NCI-H1793 | 0.875 | 0.658 | 0.684 | 0.657 | 0.631 | – | – | – | – | – | 0.32 | 0.399 | 0.362 | 0.266 | 0.343 | 0.548 | 0.602 | 0.567 | 0.446 | 0.498 |
| NCI-H2228 | 1.18 | 0.942 | 0.991 | 1.08 | 0.831 | 0.399 | 0.379 | 0.436 | 0.454 | 0.367 | 0.249 | 0.281 | 0.207 | 0.216 | 0.265 | – | – | – | – | – |
| NCI-H2342 | – | – | – | – | – | – | – | – | – | – | 0.602 | 0.631 | 0.488 | 0.488 | 0.504 | 0.799 | 0.697 | 0.672 | 0.756 | 0.776 |
